Test [1] relates to P. aeruginosa (ATCC 10145). The test can be described thus: Broad-spectrum activity against Gram-Negative bacteria (MIC). Type of test: cell-based. The settings on record: Table 16, Gram-negative panel.
In test [2] the test system is P. aeruginosa (ATCC BAA-1744). The description is as above. Type of test: cell-based. The settings on record: Table 16, Gram-negative panel.
Test [3] relates to A. baumannii (ATCC BAA-1605). The description is as above. Type of test: cell-based. The settings on record: Table 16, Gram-negative panel.
In another test the test system is B. subtilis (ATCC-6633). The test can be described thus: Broad-spectrum activity against Gram-Positive bacteria (MIC). Type of test: cell-based. Set-up: unit not given here.
Test [4] concerns Enterococcus faecalis ATCC 51575. The settings on record: E. faecalis ATCC 51575.
The next test has as its system S. aureus ATCC 29213. The settings on record: S. aureus ATCC 29213.
Test [5] deals with Enterococcus faecalis ATCC 29212. The settings on record: E. faecalis ATCC 29212.
For test [6], the system named is Enterococcus faecium ATCC 27270. The following applies: E. faecium ATCC 27270.
Test [7] deals with Pseudomonas aeruginosa (ATCC 27883). The settings on record: P. aeruginosa ATCC 27883.
Test [8] relates to Methicillin-resistant Staphylococcus aureus MRSA (ATCC BAA-1556). The settings on record: MRSA ATCC BAA-1556.
For another test, the system named is E. coli (ATCC BAA-2452). The test can be described thus: Broad-spectrum activity against Gram-Negative bacteria (MIC). Type of test: cell-based. The settings on record: Table 16, Gram-negative panel.
Test [9] has as its system Klebsiella pneumoniae (ATCC BAA-1705). The settings on record: Table 16, Gram-negative panel.
The subject of test [10] is Klebsiella pneumoniae ATCC 13883. The settings on record: Table 16, Gram-negative panel.
In test [11] the test system is Streptococcus pneumoniae ATCC 51938. The following applies: S. pneumoniae ATCC 51938.
Test [12] relates to Escherichia coli (ATCC 25922). The settings on record: E. coli ATCC 25922.
The next test has as its system B. cereus (ATCC-13061). The test can be described thus: Broad-spectrum activity against Gram-Positive bacteria (MIC). Type of test: cell-based. Set-up: unit not given here.
Test [13] relates to Enterococcus faecium ATCC 700221. The following applies: E. faecium ATCC 700221.
For test [14], the system named is Streptococcus pneumoniae ATCC 49619. The settings on record: S. pneumoniae ATCC 49619.

The results in this text go back to US20220289794A1, “SYNTHETIC ANTIMICROBIAL PEPTIDES” (priority 2019, published 2022).

Consider “c[arg-arg-arg-arg-dip-Trp-dip] [IFX-095]”, for which the MIC P. aeruginosa (ATCC 10145) in [1] was 25 µg/mL. The substance also came in with an MIC P. aeruginosa (ATCC BAA-1744) in test [2] of 25 µg/mL. In addition, the MIC A. baumannii (ATCC BAA-1605) in [3] worked out at 12.5 µg/mL. Also, in the test with B. subtilis (ATCC-6633), the “Broad-spectrum activity B. subtilis (ATCC-6633)” value is reported as 1.5. In test [4], the “Broad-spectrum activity E. faecalis (ATCC 51575)” value worked out at 12.5. In the test with S. aureus ATCC 29213, the “MIC S. aureus ATCC 29213” value is 3.1 µg/mL. In addition, in test [5], the “Broad-spectrum activity E. faecalis (ATCC 29212)” value worked out at 6.2. Also, the “Broad-spectrum activity E. faecium (ATCC 27270)” value in test [6] came out at 3.1. Moreover, the “MIC P. aeruginosa ATCC 27883” value in [7] is 12.5 µg/mL. Besides, the “MIC MRSA ATCC BAA-1556” value in test [8] was determined as 3.1 µg/mL. The substance further yielded an MIC E. coli (ATCC BAA-2452) against E. coli (ATCC BAA-2452) of 25 µg/mL. The MIC K. pneumonia (ATCC BAA-1705) in test [9] came to 12.5 µg/mL. Also, the MIC K. pneumonia (ATCC 13883) in test [10] stood at 50 µg/mL. In addition, the “Broad-spectrum activity S. pneumoniae (ATCC 51938)” value in test [11] was determined as 12.5. In [12], the “MIC E. coli ATCC 25922” value was found to be 12.5 µg/mL. In addition, the “Broad-spectrum activity B. cereus (ATCC-13061)” value in the test on B. cereus (ATCC-13061) worked out at 3.1. Besides, the “Broad-spectrum activity E. faecium (ATCC 700221)” value in test [13] is reported as 6.2. Also, the “Broad-spectrum activity S. pneumoniae (ATCC 49619)” value in test [14] was 50.

For “c[arg-arg-Arg-Arg-naI-trp-naI] [IFX-138]”, the MIC P. aeruginosa (ATCC 10145) in [1] was found to be 50 µg/mL. In [2], this substance returned an MIC P. aeruginosa (ATCC BAA-1744) of 50 µg/mL. In addition, in test [3], the MIC A. baumannii (ATCC BAA-1605) amounted to 25 µg/mL. Besides, in the test with B. subtilis (ATCC-6633), the “Broad-spectrum activity B. subtilis (ATCC-6633)” value was 3.1. In [4], the “Broad-spectrum activity E. faecalis (ATCC 51575)” value is reported as 6.2. The “MIC S. aureus ATCC 29213” value in the test on S. aureus ATCC 29213 is 1.5 µg/mL. In test [5], the “Broad-spectrum activity E. faecalis (ATCC 29212)” value was 6.2. In addition, in [6], the “Broad-spectrum activity E. faecium (ATCC 27270)” value stood at 3.1. Further, in test [7], the “MIC P. aeruginosa ATCC 27883” value stood at 32 µg/mL. In addition, the “MIC MRSA ATCC BAA-1556” value in test [8] amounted to 3.1 µg/mL. This substance also yielded an MIC E. coli (ATCC BAA-2452) against E. coli (ATCC BAA-2452) of 12.5 µg/mL. In test [9], the MIC K. pneumonia (ATCC BAA-1705) is 50 µg/mL. The MIC K. pneumonia (ATCC 13883) in test [10] turned out to be 50 µg/mL. The “Broad-spectrum activity S. pneumoniae (ATCC 51938)” value in test [11] amounted to 25. The “MIC E. coli ATCC 25922” value in test [12] is 16 µg/mL. The “Broad-spectrum activity B. cereus (ATCC-13061)” value in the test on B. cereus (ATCC-13061) came to 6.2. In addition, the “Broad-spectrum activity E. faecium (ATCC 700221)” value in test [13] was 6.2. Further, the “Broad-spectrum activity S. pneumoniae (ATCC 49619)” value in [14] is 50.

“c[arg-arg-Arg-Arg-naI-Trp-naI] [IFX-136]” had an MIC P. aeruginosa (ATCC 10145) in test [1] of 50 µg/mL. Moreover, the MIC P. aeruginosa (ATCC BAA-1744) in [2] turned out to be 25 µg/mL. The MIC A. baumannii (ATCC BAA-1605) in test [3] was found to be 12.5 µg/mL. Besides, in the test with B. subtilis (ATCC-6633), the “Broad-spectrum activity B. subtilis (ATCC-6633)” value turned out to be 1.5. Moreover, the “Broad-spectrum activity E. faecalis (ATCC 51575)” value in [4] was determined as 6.2. Also, in the test with S. aureus ATCC 29213, the “MIC S. aureus ATCC 29213” value is 1.5 µg/mL. Further, the “Broad-spectrum activity E. faecalis (ATCC 29212)” value in [5] was 6.2. In [6], the “Broad-spectrum activity E. faecium (ATCC 27270)” value was 3.1. In addition, the “MIC P. aeruginosa ATCC 27883” value in test [7] was 32 µg/mL. For the same substance, the “MIC MRSA ATCC BAA-1556” value in test [8] was 3.1 µg/mL. Further, the MIC E. coli (ATCC BAA-2452) in the test with E. coli (ATCC BAA-2452) turned out to be 12.5 µg/mL. Further, the MIC K. pneumonia (ATCC BAA-1705) in [9] is 25 µg/mL. Further, the MIC K. pneumonia (ATCC 13883) in test [10] was determined as 50 µg/mL. Also, the “Broad-spectrum activity S. pneumoniae (ATCC 51938)” value in test [11] came to 12.5. Further, the “MIC E. coli ATCC 25922” value in test [12] turned out to be 16 µg/mL. Also, the “Broad-spectrum activity B. cereus (ATCC-13061)” value with B. cereus (ATCC-13061) is given as 3.1. Moreover, the “Broad-spectrum activity E. faecium (ATCC 700221)” value in test [13] is on record as 3.1. Moreover, the “Broad-spectrum activity S. pneumoniae (ATCC 49619)” value in test [14] was determined as 25.

On to “c[Arg-Arg-Arg-Arg-Dip-dip-Dip] [IFX-061]”, for which the MIC P. aeruginosa (ATCC 10145) in [1] was 25 µg/mL. Besides, in test [2], the MIC P. aeruginosa (ATCC BAA-1744) was 12.5 µg/mL. For the same substance, the MIC A. baumannii (ATCC BAA-1605) in test [3] is 6.2 µg/mL. In the test on B. subtilis (ATCC-6633), the “Broad-spectrum activity B. subtilis (ATCC-6633)” value was 1.5. Moreover, in test [4], the “Broad-spectrum activity E. faecalis (ATCC 51575)” value is recorded as 12.5. Besides, the “MIC S. aureus ATCC 29213” value against S. aureus ATCC 29213 is 3.1 µg/mL. In addition, in test [5], the “Broad-spectrum activity E. faecalis (ATCC 29212)” value worked out at 6.2. Besides, the “Broad-spectrum activity E. faecium (ATCC 27270)” value in test [6] turned out to be 3.1. The “MIC P. aeruginosa ATCC 27883” value in test [7] amounted to 12.5 µg/mL. Moreover, in [8], the “MIC MRSA ATCC BAA-1556” value came to 1.5 µg/mL. The substance also displayed an MIC E. coli (ATCC BAA-2452) in the test with E. coli (ATCC BAA-2452) of 12.5 µg/mL. In test [9], this substance came in with an MIC K. pneumonia (ATCC BAA-1705) of 25 µg/mL. For the same substance, in test [10], the MIC K. pneumonia (ATCC 13883) amounted to 50 µg/mL. Also, in test [11], the “Broad-spectrum activity S. pneumoniae (ATCC 51938)” value came to 12.5. Moreover, in test [12], the “MIC E. coli ATCC 25922” value was 12.5 µg/mL. In addition, the “Broad-spectrum activity B. cereus (ATCC-13061)” value with B. cereus (ATCC-13061) worked out at 3.1. Moreover, in [13], the “Broad-spectrum activity E. faecium (ATCC 700221)” value is listed as 3.1. For the same substance, the “Broad-spectrum activity S. pneumoniae (ATCC 49619)” value in test [14] is recorded as 50.
